According to patent US20180282415A1, “Combination of a PD-1 Axis Binding Antagonist and an ALK Inhibitor for Treating ALK-Negative Cancer” (Merck Patent GmbH, priority 2015, published 2018):

Key:
CT26 colon carcinoma = assay: In vivo tumor efficacy, CT26 model, crizotinib or alectinib with anti-PD-L1 (Example 3); set-up: species or system Balb/c mice; conditions: alectinib study, alectinib 60 mg/kg, anti-mPDL1 10 mg/kg
Text: CT26 colon carcinoma cell line has published mutanome and transcriptome data, with no known ALK fusion events or oncogenic mutations. Castle et al, BMC Genomics, 15:190 (13 Mar. 2014); Castle et al, CAN 11:3722 (11 Jan. 2012).
Six- to eight-week old female Balb/c or C57BL/6 mice were purchased from The Jackson Laboratories.
CT26 cell lines, anti-PD-L1 antibody and Rat IgG isotypes (IgG2a and IgG2b) were purchased from BioXCell (clones 2A3 and LTF2, respectively) and prepared as described in Example 2 above. […]

[1] = test system: CD3/CD28-stimulated effector cells (T cells from healthy donors' PBMCs); assay: T cell proliferation assay (3H thymidine incorporation), CD3/CD28-stimulated T cells; format: cell-based, human; conditions: log[Agonist]
Text: (§1) Briefly, human cells were isolated from healthy donors' PBMCs by using EasySep™ Human T Cell Enrichment Kit (Stemcell Technologies) according to manufacturer's instruction. […] Culture supernatants were collected on Day 2 or 3 for cytokine analysis. Plates were then harvested on DNA specific filter papers (Perkin Elmer) using Harvester96 (Tomtec Life Sciences). The radiolabeled filters were covered with beta scintillation liquid (Perkin Elmer) and read in Microbeta® counter plates (Perkin Elmer). ^3H Thymidine was pulsed on Day 2 for T cell proliferation assay.

activated T cells = assay: T cell viability, Cell-Titer Glo Luminescent Cell Viability Assay; format: cell-based, human; conditions: log[Agonist]
Method: as §1, with “instruction. […] Cells were cultured in RPMI 1640 medium supplemented with 10% FCS and 100 I.U./mL penicillin/streptomycin in humidified incubator at 37° C. with 5% CO2.” for “instruction.”, “assay. The impact by sunitinib and axitinib on T cell proliferation and viability were repeated as previously published (FIGS. 1A and 1B).” for “assay.”
Cell viability was measured by Cell-Titer Glo Luminescent Cell Viability Assay® (Promega, Madison). […] Table 4 below provides the Luciferase RLU values reflecting T cell viability for each of the respective inhibitors.

MC38 colon carcinoma = assay: In vivo tumor efficacy, MC38 model, crizotinib with avelumab (Example 5); set-up: species or system C57BL/6 mice; conditions: for Tumor Volume (Mean ± SEM): avelumab 20 mg/kg i.p., crizotinib 40 mg/kg orally QD
Method: Avelumab is a fully human IgG1 antibody that recognizes both human and mouse PD-L1. […] Six- to eight-week old female C57BL/6 mice were purchased from The Jackson Laboratories (Farmington, Conn.). Mice were maintained and all animal experiments were conducted according to the protocols approved by the Institutional Animal Care and Use Committee of Rinat, South San Francisco and Worldwide Research and Development (WRD), La Jolla, Pfizer Inc. MC38 colon carcinoma cell line was kindly provided by Dr. Antoni Ribas at UCLA, California. Cells were cultured in DMEM medium supplemented with 10% fetal bovine serum, and 100 I.U./mL penicillin/streptomycin at 37° C. in an atmosphere of 5% CO2 in air, and IMPACT-tested for pathogens at Research Animal Diagnostic Laboratory (RADIL) (Columbia, Mo.). Pathogen-free cells growing in an exponential growth phase were harvested and used for tumor inoculation. […] Human IgG1 was prepared in-house (Lot No. NB123249p192CA110124). […] Body weight was recorded weekly. […] Mice were monitored for tumor growth and body weight changes.

CCc1cc2c(cc1N1CCC(N3CCOCC3)CC1)C(C)(C)c1[nH]c3cc(C#N)ccc3c1C2=O [Alectinib, alectinib]
Tumor Volume (Mean ± SEM) (CT26 colon carcinoma; Day 7): 119.1 ± 12.5 mm^3 | Tumor Volume (Mean ± SEM) (CT26 colon carcinoma; Day 14): 293.4 ± 54.2 mm^3 | Tumor Volume (Mean ± SEM) (CT26 colon carcinoma; Day 19): 546.8 ± 98.0 mm^3 | Tumor Volume (Mean ± SEM) (CT26 colon carcinoma; Day 24): 1114.2 ± 217.0 mm^3 | Tumor Volume (Mean ± SEM) (CT26 colon carcinoma; Day 27): 1892.5 ± 283.1 mm^3

CCN(CC)CCNC(=O)c1c(C)[nH]c(/C=C2\C(=O)Nc3ccc(F)cc32)c1C [Sunitinib, sunitinib]
Thymidine incorporation(CPM) ([1]; μM: 0): 493570.3 ± 59347.45 CPM | Thymidine incorporation(CPM) ([1]; μM: 1): 332 ± 105.9733 CPM | Thymidine incorporation(CPM) ([1]; μM: 2): 117.3333 ± 16.23 CPM | Thymidine incorporation(CPM) ([1]; μM: 3): 171 ± 25 CPM | Thymidine incorporation(CPM) ([1]; μM: −1): 468847.7 ± 39073.88 CPM | Thymidine incorporation(CPM) ([1]; μM: −2): 444679.3 ± 13911.18 CPM | Thymidine incorporation(CPM) ([1]; μM: −3): 469071 ± 48070.7 CPM | Luciferase RLU (T cell viability) (activated T cells; μM: 0): 98.24 ± 2.169 RLU | Luciferase RLU (T cell viability) (activated T cells; μM: 1): 13.95 ± 7.493 RLU | Luciferase RLU (T cell viability) (activated T cells; μM: 2): 0.8502 ± 0.2596 RLU | Luciferase RLU (T cell viability) (activated T cells; μM: 3): 1.827 RLU | Luciferase RLU (T cell viability) (activated T cells; μM: −1): 91.57 ± 2.195 RLU | Luciferase RLU (T cell viability) (activated T cells; μM: −2): 98.04 ± 2.634 RLU | Luciferase RLU (T cell viability) (activated T cells; μM: −3): 96.57 ± 1.711 RLU

B1: Avelumab: fully human IgG1 antibody that recognizes both human and mouse PD-L1 (antibody, V domains shown)
VH: EVQLLESGGGLVQPGGSLRLSCAASGFTFSSYIMWVRQAPGKGLEWVSSIYPSGGITFYADKGRFTISRDNSKNTLYLQMNSLRAEDTAVYYCARIKLGTVTTVDYWGQGTLVTVSS
VL: QSALTQPASVSGSPGQSITISCTGTSSDVGGYNYVSWYQQHPGKAPKLMIYDVSNRPSGVSNRFSGSKSGNTASLTISGLQAEDEADYYCSSYTSSSTRVFGTGTKVTVL
Tumor Volume (Mean ± SEM) (MC38 colon carcinoma; Day 7): 78.3 ± 5.4 mm^3 | Tumor Volume (Mean ± SEM) (MC38 colon carcinoma; Day 14): 145.5 ± 11.0 mm^3 | Tumor Volume (Mean ± SEM) (MC38 colon carcinoma; Day 19): 307.1 ± 25.5 mm^3 | Tumor Volume (Mean ± SEM) (MC38 colon carcinoma; Day 24): 535.0 ± 62.0 mm^3 | Tumor Volume (Mean ± SEM) (MC38 colon carcinoma; Day 27): 817.7 ± 87.2 mm^3 | TGI (MC38 colon carcinoma; compared with the isotype control antibody treated group, avelumab 20 mg/kg, crizotinib 40 mg/kg): 49.7%
